“And” between values parts separate entries of the source, which are not always exact repeats. Equal entries are not always repeated. Where two headings read alike, the source gives them in different places.
Assays:
[1] = for change in formation clearance (CLf) during pregnancy compared to postpartum: T2 or T3 vs matched postpartum; for CL renal: female, human, urine and plasma, oral, CLR (renal clearance); for CL renal / CLR (renal clearance): geometric mean [range]
[2] = type: in vivo, human; settings: at delivery, three subjects; for maternal plasma steady-state concentration / umbilical cord venous plasma steady-state concentration: mean±SE; for fetal to maternal ratio (umbilical cord venous plasma to maternal plasma concentration): steady-state
[3] = Steady-state plasma concentrations of BUP and metabolites in pregnancy; settings: for Css (dose-normalized steady-state plasma concentration) / metabolite/BUP steady-state concentration ratio: geometric mean [range]; for steady-state concentration relative to BUP: pregnant women and postpartum
[4] = cited from earlier work
[5] = postpartum (PP) matched to T2, n=5
[6] = postpartum (PP) matched to T3, n=5

SMILES	change in formation clearance (CLf) during pregnancy compared to postpartum [1]	maternal plasma steady-state concentration [2]	umbilical cord venous plasma steady-state concentration [2]	Css (dose-normalized steady-state plasma concentration) [3, 5]	Css (dose-normalized steady-state plasma concentration) [3, 6]	Css (dose-normalized steady-state plasma concentration) ([3]; second trimester (T2), n=5)	Css (dose-normalized steady-state plasma concentration) ([3]; third trimester (T3), n=5)	CLR (renal clearance) [1, 5]	CLR (renal clearance) [1, 6]	CLR (renal clearance) ([1]; second trimester (T2), n=5)	CLR (renal clearance) ([1]; third trimester (T3), n=5)	plasma concentration exceeding BUP concentration [4]	metabolite/BUP steady-state concentration ratio [3, 5]	metabolite/BUP steady-state concentration ratio [3, 6]	metabolite/BUP steady-state concentration ratio ([3]; second trimester (T2), n=5)	metabolite/BUP steady-state concentration ratio ([3]; third trimester (T3), n=5)	steady-state concentration relative to BUP ([3]; this study)	other results
CC(NC(C)(C)C)C(=O)c1ccc(O)c(Cl)c1 (stereo not drawn) [4’OH-BUP, 4’-hydroxy-bupropion]	no changes	–	–	–	–	–	–	–	–	–	–	–	–	–	–	–	–	–
CC(NC(C)(C)C)C(=O)c1cccc(Cl)c1 (stereo not drawn) [BUP, Bupropion, reference compound]	–	0.5 ± 0.2 µM/g	0.2 ± 0.1 µM/g	0.53 [0.11–1.3] μM/g	0.41 [0.11–1.1] μM/g	0.33 [0.08–1.2] μM/g	0.44 [0.19–1.2] μM/g	–	–	–	–	–	–	–	–	–	–	CL renal ([1]; second trimester (T2), n=5): 40 mL/min; CL renal ([1]; third trimester (T3), n=5): 30 mL/min
CC(NC(C)(C)C)C(O)c1cccc(Cl)c1 (stereo not drawn) [Erythro, erythrohydrobupropion]	no changes	0.5 ± 0.5 µM/g	0.3 ± 0.3 µM/g	0.67 [0.25–1.7] μM/g	0.80 [0.25–1.7] μM/g	0.49 [0.33–0.78] μM/g	0.63 [0.52–0.79] μM/g	1.6 [0.36–9.7] L/h	1.9 [0.36–9.7] L/h	2.1 [0.91–4.4] L/h	1.2 [0.74–1.7] L/h	3–30 fold	1.3 [0.5–3.2]	1.9 [1.2–3.2]	1.5 [0.4–4.2]	1.4 [0.6–2.7]	similar	–
C[C@H]1NC(C)(C)CO[C@]1(O)c1cccc(Cl)c1 [OH-BUP, hydroxybupropion]	no changes	–	–	16.3 [4.9–39.6] μM/g	13.3 [4.9–39.6] μM/g	15.1 [10.6–18.7] μM/g	16.5 [6.3–30.9] μM/g	0.10 [0.02–0.54] L/h	0.10 [0.03–0.46] L/h	0.20 [0.11–0.36] L/h	0.08 [0.04–0.12] L/h	3–30 fold	–	–	–	–	28–33 fold and 30 fold	steady-state concentration relative to racemic BUP ([4]; non-pregnant subjects): 28 fold
C[C@H]1NC(C)(C)CO[C@]1(O)c1cccc(Cl)c1 [R,R-OH-BUP]	–	19.1 ± 12.0 µM/g	6.4 ± 3.1 µM/g	15.9 [5.5–35.7] μM/g	14.0 [5.5–35.7] μM/g	15.8 [10.0–22.2] μM/g	13.7 [5.9–21.2] μM/g	0.08 [0.02–0.45] L/h	0.09 [0.03–0.35] L/h	0.15 [0.07–0.32] L/h	0.07 [0.05–0.09] L/h	–	32.5 [15.8–77.2]	35.6 [15.2–77.2]	43.8 [16.4–178.7]	33.7 [13.5–99.1]	–	fetal to maternal ratio (umbilical cord venous plasma to maternal plasma concentration) [2]: 0.4±0.1; R,R-OH-BUP exposure relative to S,S-OH-BUP [4]: up to 65 fold; R,R-OH-BUP concentration relative to S,S-OH-BUP ([4]; non-pregnant subjects): 40–65 fold; R,R-OH-BUP steady-state concentration relative to S,S-OH-BUP ([3]; this study): 14–20 fold
C[C@@H](NC(C)(C)C)C(=O)c1cccc(Cl)c1 [R-BUP, R-bupropion, reference compound]	–	–	–	–	–	–	–	–	–	–	–	–	–	–	–	–	–	circulating concentration of R-BUP relative to S-BUP [4]: 3- to 6 fold
C[C@@H]1NC(C)(C)CO[C@@]1(O)c1cccc(Cl)c1 [S,S-OH-BUP]	–	0.8 ± 0.6 µM/g	0.4 ± 0.2 µM/g	0.78 [0.10–2.2] μM/g	0.64 [0.10–2.2] μM/g	0.73 [0.20–1.4] μM/g	0.83 [0.36–1.7] μM/g	0.35 [0.09–3.5] L/h	0.47 [0.09–3.5] L/h	0.93 [0.31–3.4] L/h	0.40 [0.24–0.72] L/h	–	1.5 [0.7–5.9]	1.6 [0.8–5.9]	2.2 [1.0–6.0]	1.9 [0.9–8.7]	–	–
C[C@H](NC(C)(C)C)[C@@H](O)c1cccc(Cl)c1 [Threo, threohydrobupropion]	no changes	4.9 ± 5.3 µM/g	3.7 ± 4.3 µM/g	4.1 [1.2–10.8] μM/g	4.7 [1.2–10.8] μM/g	3.4 [1.8–6.7] μM/g	4.9 [3.1–10.7] μM/g	2.4 [0.55–17.6] L/h	2.9 [0.59–17.6] L/h	3.9 [1.7–8.6] L/h	2.0 [1.1–2.8] L/h	3–30 fold	7.8 [3.5–17.6]	11.5 [9.7–17.6]	10.3 [4.8–23.1]	11.2 [5.6–16.6]	8–10 fold and 10 fold	fetal to maternal ratio (umbilical cord venous plasma to maternal plasma concentration) [2]: 0.7±0.1; steady-state concentration relative to racemic BUP ([4]; non-pregnant subjects): 5 fold
